Measurements as given in US4312813A, “Bisquaternary ammonium compound” (Johnson & Johnson Baby Products Company, priority 1980, dated 1982).

Legend:
[1] = tested on: Trichophyton mentagrophytes; experiment: Minimum Inhibiting Concentration test; assay type: cell-based; settings: fungi, 25° C., 1 month
Procedure: (§1) First, 200 mg. each of the compounds, AA, CC, GG, II and MM are placed in 100 ml. of a 10% ethyl alcohol solution resulting in a concentration of 2.00 mg/ml. and then 11 serial two fold dilutions are made to a final concentration of […]. Thus, a range of concentrations of from 0.0001 mg/ml. to 2.00 mg/ml. are prepared. Separately, 1000 ml. of a standard Antibiotic Medium #3 is innoculated with 1 ml. of a 24 hour broth culture of each of the test organisms and the resulting solutions are dispersed in 2 ml. portions into 13 mm×100 mm test tubes at 4° C. Two test tubes for each of the test organisms are prepared.
(§2) Then, 0.4 ml. of each concentration of the compound to be tested is placed in each of the test tubes, which are then shaken and placed at a temperature of 35° C. for a period of 18 hours for bacteria, 25° C. for a period of 3 days for yeast, and 25° C. for a period of 1 month for fungi. The end point of the activity is determined by streaking utilizing a calibrated loop to Trypticase Soy Agar to determine the last tube (concentration) with growth and the next greatest concentration.

Proteus mirabilis = experiment: Minimum Inhibiting Concentration test; assay type: cell-based; settings: 35° C., 18 hours
Procedure: as §1, §2

Pseudomonas aeruginosa = experiment: Minimum Inhibiting Concentration test; assay type: cell-based; settings: 35° C., 18 hours
Procedure: as §1, §2

Candida albicans = experiment: Minimum Inhibiting Concentration test; assay type: cell-based; settings: yeast, 25° C., 3 days; for MIC: 72 h
Procedure: as §1, §2

Aspergillus niger = experiment: Minimum Inhibiting Concentration test; assay type: cell-based; settings: fungi, 25° C., 1 month
Procedure: as §1, §2

Escherichia coli = experiment: Minimum Inhibiting Concentration test; assay type: cell-based; settings: 35° C., 18 hours
Procedure: as §1, §2

Proteus vulgaris = experiment: Minimum Inhibiting Concentration test; assay type: cell-based; settings: 35° C., 18 hours
Procedure: as §1, §2

Staphylococcus epidermis = experiment: Minimum Inhibiting Concentration test; assay type: cell-based; settings: 35° C., 18 hours
Procedure: as §1, §2

Staphylococcus aureos = experiment: Minimum Inhibiting Concentration test; assay type: cell-based; settings: 35° C., 18 hours
Procedure: as §1, §2

Epidermophyton flocossum = experiment: Minimum Inhibiting Concentration test; assay type: cell-based; settings: fungi, 25° C., 1 month
Procedure: as §1, §2

Staphylococcus pyogenes = experiment: Minimum Inhibiting Concentration test; assay type: cell-based; settings: 35° C., 18 hours; for MIC: Staphylococcus aureus
Procedure: as §1, §2

[2] = hair fly-away: electrostatic charge of brushed hair tresses (Faraday pail, electrometer); settings: one percent aqueous solutions; hair tresses brushed or combed 20 strokes
Procedure: To test the hair fly-away characteristics of the novel bisquaternary ammonium compounds of the present invention, the following test procedure can be utilized.
The hair to be utilized is formed into six inch long, 1.5 gram weight tresses, cleaned with methanol first, then with a 1% solution of sodium lauryl sulfate followed by a rinse with distilled water. The tress is then dried in an oven at 55° C. The tresses except for the controls are then treated with the test compounds and redried at 55° C.
An electrometer (Electrometer Model 610C, Keithley Instrument Co., Cleveland, Ohio) to serve as a coulomb meter for direct measurement of charge is attached to a Faraday pail and switched on.
The test tresses are singly taken out of the drying oven, held at the tied end and brushed or combed twenty strokes alternating between front and back side of the tress as held by the operator. A clean brush or comb is utilized and the velocity with which the brush or comb is traversed through the tress is maintained constant as much as possible. Further, since the electrostatic charges are capable of being quickly dissipated into the atmosphere, the procedure consists of uniformly brushing or combing 20 strokes in a period of 10 seconds and immediately following the last stroke, the lid of the Faraday cage is opened and the tress is dropped into the Faraday pail without contacting any other object and the lid is replaced. The charge in coulombs is read from the electrometer and the tress is then removed from the Faraday pail and the instrument is reset for the next tress sample.
Since electrostatic charge buildup creates fly-away in atmospheres of low humidity, these compounds are useful to prevent said fly-away condition.

rabbit eye = experiment: modified Draize Test, ocular irritation; assay type: in vivo; settings: 3.50% of compound in shampoo composition; 0.1 ml per eye, albino rabbit; control shampoo rated Severe Irritant
Procedure: The bisquaternary ammonium compounds of the present invention can be tested for ocular irritation by the following modified Draize Test (J. H. Draize et al., Toilet Goods Assn. No. 17, May 1952, No. 1, Proc. Sci. Sect.).
An 0.1 ml. sample of a neutral composition under test is dropped into one eye of an albino rabbit, the other eye serving as a control. Six rabbits are employed for each composition. Observations are made after 1, 24, 48, 72 and 96 hours and 7 days after initial instillation; second and third instillations are made after the 24 and 48 hour readings. Results may vary from substantially no change or only a slight irritation in the appearance of the rabbit's eye after 7 days to severe irritation and/or complete corneal opacity. Ocular lesions are scored for the cornea, iris and conjunctiva with a higher number indicating greater ocular irritation and the scores are added to give a total numerical value for each reading for six rabbits and averaged. The averaged score is an indication of the irritation potential of the composition under test. Based on the averaged score, descriptive irritation evaluation may be given, e.g., none, slight, moderate, severe, as the case may be.
A shampoo composition is prepared consisting of the following ingredients:
This formulation serves as a control with three additional formulations being made with the only difference being that in each of said formulations 3.50% of distilled water is replaced with 3.50% of compound JJ, KK and LL respectively. These formulations are then tested in accordance with the above procedure and the results are shown below in Table I.

Compound | MIC [1] | MIC (Proteus mirabilis) | MIC (Pseudomonas aeruginosa) | MIC (Candida albicans) | MIC (Aspergillus niger) | MIC (Escherichia coli) | MIC (Proteus vulgaris) | MIC (Staphylococcus epidermis) | MIC (Staphylococcus aureos) | MIC (Epidermophyton flocossum) | MIC (Staphylococcus pyogenes) | charge reduction compared to the control [2] | ocular irritation rating (rabbit eye) | also measured
C=CCCCCCCCCC(=O)NCCC[N+](C)(C)CCCC[N+](C)(C)CCCNC(=O)CCCCCCCCC=C [AA, N,N'-undecenylamidopropyl-N,N,N',N'-tetramethyl-1,-4-butylene diammonium bromide] | 16 µg/mL | < 2000 µg/mL | 1000 µg/mL | 250 µg/mL | 250 µg/mL | 125 µg/mL | 250 µg/mL | 62.5 µg/mL | 125 µg/mL | 125 µg/mL | 500 µg/mL | – | – | –
CCCCCCCCCCCC(=O)NCCC[N+](C)(C)CCOCC[N+](C)(C)CCCNC(=O)CCCCCCCCCCC [CC, N,N'-di(lauramidopropyl)-N,-N,N',N'-tetramethyl-1,5(3-oxapentylene) diammonium bromide] | 16 µg/mL | < 2000 µg/mL | 250 µg/mL | 63 µg/mL | 125 µg/mL | 125 µg/mL | < 2000 µg/mL | 125 µg/mL | 250 µg/mL | 62.5 µg/mL | 250 µg/mL | greater than 95% | – | –
CCCCCCCCCCCCCCCCCC(=O)NCC[N+](CC)(CC)CCOCC[N+](CC)(CC)CCNC(=O)CCCCCCCCCCCCCCCCC [GG, N,N'-di(stearamidoethyl)-N,N,N',N'-tetraethyl-1,5(3-oxapentylene)diammonium dibromide] | 16 µg/mL | < 2000 µg/mL | < 2000 µg/mL | 31 µg/mL | 250 µg/mL | 1000 µg/mL | < 2000 µg/mL | 62.5 µg/mL | 625 µg/mL | 250 µg/mL | < 2000 µg/mL | – | – | –
CCCCCCCCCCCCCCCCCCCCCC(=O)NCCC[N+](C)(C)CCOCC[N+](C)(C)CCCNC(=O)CCCCCCCCCCCCCCCCCCCCC [KK, N,N'-di(docosamidopropyl)-N,N,N',N'-tetramethyl-1,5(3-oxapentylene)diammonium dibromide] | – | – | – | – | – | – | – | – | – | – | – | – | Slight-Moderate Irritant | –
CCCCCCCCCCCCCCCCCCCCCC(=O)NCCC[N+](C)(C)CCOCCOCCOCCOCCOCCOCCOCCOCCOCCOCCOCCOCC[N+](C)(C)CCCNC(=O)CCCCCCCCCCCCCCCCCCCCC.[Br-].[Br-] [LL, N,N'-di(docosamidopropyl)-N,N,N',N'-tetramethyl-1,38(3,6,9,12,15,18,21,24,-27,30,33,36-dodeca-oxaoctatricontylene)diammonium dibromide] | – | – | – | – | – | – | – | – | – | – | – | greater than 95% | Slight-Moderate Irritant | –
N,N'-di(octadidecenamidopropyl)-N,N,N',N'-tetramethyl-1,20 (2,5,8,11,14,17,20-heptamethyl-3,6-9,12,15,18-hexaoxaeicosylene) diammonium dibromide [II] | – | – | – | – | – | – | – | – | – | – | – | – | – | minimum inhibiting concentration [1]: 0.031 mg/mL; minimum inhibiting concentration (Proteus mirabilis): < 2.000 mg/mL; minimum inhibiting concentration (Pseudomonas aeruginosa): 2.000 mg/mL; minimum inhibiting concentration (Candida albicans): 0.250 mg/mL; minimum inhibiting concentration (Aspergillus niger): 0.500 mg/mL; minimum inhibiting concentration (Escherichia coli): 0.500 mg/mL; minimum inhibiting concentration (Proteus vulgaris): < 2.000 mg/mL; minimum inhibiting concentration (Staphylococcus epidermis): 1.000 mg/mL; minimum inhibiting concentration (Staphylococcus aureos): 2.000 mg/mL; minimum inhibiting concentration (Epidermophyton flocossum): 0.500 mg/mL; minimum inhibiting concentration (Staphylococcus pyogenes): < 2.000 mg/mL
N,N'-di(octatridecenamidopropyl)-N,N,N',N'-tetramethyl-1,5(3-oxapentylene)-diammonium dibromide [JJ] | – | – | – | – | – | – | – | – | – | – | – | greater than 95% | Slight Irritant | –
